Reference: PMC9004777, “Double drugging of prolyl-tRNA synthetase provides a new paradigm for anti-infective drug development” (PLoS Pathogens, 2022)
Like-named read-outs stand apart in the source and are kept apart here.

Experiments:
[1] = target: T1, Toxoplasma gondii prolyl-tRNA synthetase (TgPRS) (Toxoplasma gondii, UniProt A0A7J6JUK2); experiment: co-crystal structure with L95 at […] Å; TSA; malachite green aminoacylation assay (IC50); assay type: biochemical
T1 construct: gene TGRH88_057780
T1 sequence (A0A7J6JUK2 215-711): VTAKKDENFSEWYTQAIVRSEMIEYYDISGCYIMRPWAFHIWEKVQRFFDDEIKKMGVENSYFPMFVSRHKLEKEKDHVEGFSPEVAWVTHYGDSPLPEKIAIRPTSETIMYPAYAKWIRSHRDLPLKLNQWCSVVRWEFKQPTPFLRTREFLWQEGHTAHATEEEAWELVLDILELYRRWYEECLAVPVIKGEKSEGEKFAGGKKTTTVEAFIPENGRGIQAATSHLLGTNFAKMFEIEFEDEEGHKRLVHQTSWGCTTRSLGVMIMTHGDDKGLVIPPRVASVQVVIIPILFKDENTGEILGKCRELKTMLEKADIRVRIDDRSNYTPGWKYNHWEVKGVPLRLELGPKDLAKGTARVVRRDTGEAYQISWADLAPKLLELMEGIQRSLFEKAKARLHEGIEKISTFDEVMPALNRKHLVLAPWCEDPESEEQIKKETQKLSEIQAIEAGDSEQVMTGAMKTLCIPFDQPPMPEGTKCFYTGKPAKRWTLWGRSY

[2] = target: T2, HsPRS (Homo sapiens, UniProt P07814); experiment: malachite green aminoacylation assay, recombinant enzyme; TSA; assay type: biochemical
T2 construct: gene EPRS1

[3] = target: T1, Toxoplasma gondii prolyl-tRNA synthetase (TgPRS); experiment: co-crystal structures at […] Å (with L-pro, 7EVV; with HFG, 7EVU); TSA; malachite green aminoacylation assay (IC50); assay type: biochemical
[4] = target: T1, Toxoplasma gondii prolyl-tRNA synthetase (TgPRS); experiment: co-crystal structure with L95 at […] Å; assay type: binding

T2 sequence (P07814 whole entry): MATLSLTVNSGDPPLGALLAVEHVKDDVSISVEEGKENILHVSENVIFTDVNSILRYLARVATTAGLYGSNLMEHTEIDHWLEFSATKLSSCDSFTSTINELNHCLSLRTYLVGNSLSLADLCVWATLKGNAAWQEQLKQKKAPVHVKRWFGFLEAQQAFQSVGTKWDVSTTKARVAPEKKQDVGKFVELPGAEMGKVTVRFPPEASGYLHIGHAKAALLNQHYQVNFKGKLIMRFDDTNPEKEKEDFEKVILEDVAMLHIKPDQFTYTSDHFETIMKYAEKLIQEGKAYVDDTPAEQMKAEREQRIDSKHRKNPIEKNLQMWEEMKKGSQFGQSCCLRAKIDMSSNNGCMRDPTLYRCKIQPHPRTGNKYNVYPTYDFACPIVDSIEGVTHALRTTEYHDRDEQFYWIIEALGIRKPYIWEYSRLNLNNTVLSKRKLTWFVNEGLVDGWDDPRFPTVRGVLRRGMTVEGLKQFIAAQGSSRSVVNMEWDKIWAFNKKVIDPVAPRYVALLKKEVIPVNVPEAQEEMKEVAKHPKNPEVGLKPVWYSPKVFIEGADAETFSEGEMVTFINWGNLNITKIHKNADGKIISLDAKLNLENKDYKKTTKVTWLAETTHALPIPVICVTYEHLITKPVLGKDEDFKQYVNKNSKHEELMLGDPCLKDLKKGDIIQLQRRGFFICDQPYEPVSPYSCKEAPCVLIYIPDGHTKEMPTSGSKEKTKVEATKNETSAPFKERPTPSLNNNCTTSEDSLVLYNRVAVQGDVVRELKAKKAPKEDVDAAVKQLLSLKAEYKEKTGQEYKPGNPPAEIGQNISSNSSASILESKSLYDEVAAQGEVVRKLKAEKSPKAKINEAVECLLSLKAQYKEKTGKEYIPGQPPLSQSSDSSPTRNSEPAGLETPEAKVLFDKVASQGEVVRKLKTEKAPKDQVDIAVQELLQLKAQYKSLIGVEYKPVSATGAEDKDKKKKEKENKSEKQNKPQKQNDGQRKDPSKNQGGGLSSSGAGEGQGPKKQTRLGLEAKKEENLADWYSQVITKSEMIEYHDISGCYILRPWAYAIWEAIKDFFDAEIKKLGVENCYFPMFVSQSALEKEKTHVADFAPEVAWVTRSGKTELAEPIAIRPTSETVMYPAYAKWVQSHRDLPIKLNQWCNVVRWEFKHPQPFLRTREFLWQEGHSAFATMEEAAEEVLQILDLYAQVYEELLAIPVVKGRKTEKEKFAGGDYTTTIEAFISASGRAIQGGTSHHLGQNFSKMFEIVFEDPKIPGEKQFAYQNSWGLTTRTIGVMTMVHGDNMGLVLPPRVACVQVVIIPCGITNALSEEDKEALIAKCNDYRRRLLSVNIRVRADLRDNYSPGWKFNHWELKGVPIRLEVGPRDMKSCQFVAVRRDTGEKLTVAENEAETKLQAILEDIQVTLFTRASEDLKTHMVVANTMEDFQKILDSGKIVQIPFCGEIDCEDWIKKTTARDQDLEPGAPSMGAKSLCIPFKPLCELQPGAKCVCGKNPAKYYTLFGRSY

O=C(C[C@H]1NCCC[C@@H]1O)Cn1cnc2cc(Br)c(Cl)cc2c1=O (racemic) [HFG, halofuginone]
IC50 [1]: 5.41 nM
IC50 ([2]; read-out: IC50): 10.7 nM

Cc1cc(N2CC[C@@](C#N)(C3CC3)C2=O)cc(NC(=O)Cc2ccccc2)n1 [L95]
IC50 [3]: 47.7 nM
IC50 [2]: 47.7 nM

O=C(O)[C@@H]1CCCN1 [L-pro, L-proline]
co-crystal structure with L95 at 1.7 Å [4]: forms a salt bridge between the carboxylic group of L-pro and the guanidium group of Arg470
